Structures can show the parent of a compound that is named as a salt. Where two headings read alike, the source gives them in different places.

Holding throughout (assay): cells
Assay [1] deals with U87. The following applies: Homo sapiens, U-87 MG, 72 h.
Assay [2] concerns A431. As to conditions: Homo sapiens, A-431, 72 h.
Assay [3] has as its system HT29. The following applies: Homo sapiens, HT-29, 72 h.
For assay [4], the system named is SJ-G2. As to conditions: SJ-G2, 72 h.
The subject of assay [5] is Du145. The following applies: Homo sapiens, DU-145, 72 h.
Assay [6] concerns MCF10A. The following applies: Homo sapiens, MCF-10A, 72 h.
Assay [7] has as its system BE2-C. The following applies: Homo sapiens, BE(2)-C, 72 h.
Assay [8] deals with SMA. The following applies: SMA, 72 h.
Assay [9] relates to MIA. As to conditions: 72 h.
Assay [10] deals with MCF-7. The following applies: Homo sapiens, MCF7, 72 h.
The subject of assay [11] is A2780. As to conditions: Homo sapiens, A2780, 72 h.
Assay [12] concerns H460. The following applies: Homo sapiens, NCI-H460, 72 h.

In the case of `N=C(N)NN=Cc1ccc(OC/C=C\COc2ccc(C=NNC(=N)N)cc2)cc1` [compound 22], the GI50 was 2 ± 0.1 µM in assay [1] (read-out: 22); 2.2 ± 0.11 µM in assay [2] (read-out: 22); 2.1 ± 0.05 µM in assay [3] (read-out: 22); 1.8 ± 0.048 µM in assay [4] (read-out: 22); 1.7 ± 0.12 µM in assay [5] (read-out: 22); 2.8 ± 0.15 µM in assay [6] (read-out: 22). Besides, the GI50 in assay [7] (read-out: 22) is 2.3 ± 0.13 µM; in assay [8] (read-out: 22) it was 2.9 µM; in [9] (read-out: 22) it was 2.4 ± 0.14 µM; in assay [10] (read-out: 22), 2.3 ± 0.1 µM; in assay [11] (read-out: 22), 2.4 ± 0.14 µM; in [12] (read-out: 22), 2.2 ± 0.065 µM.

Take `CCNC(=O)Nc1ccc(OCCCOc2ccc(NC(=O)NCC)cc2)cc1` [10a, N,N′-[1,3-Propanediylbis(oxy-4,1-phenylene)]bis(N-ethyl)urea]: the GI50 in [1] (read-out: 10a), in assay [2] (read-out: 10a), in assay [3] (read-out: 10a), in assay [4] (read-out: 10a), in [5] (read-out: 10a) and in [6] (read-out: 10a) was above 50 µM in each case. Moreover, the GI50 in [7] (read-out: 10a), in assay [8] (read-out: 10a), in assay [9] (read-out: 10a), in assay [10] (read-out: 10a), in [11] (read-out: 10a) and in [12] (read-out: 10a) was above 50 µM each time.

`O=C(O)c1ccc(OC/C=C\COc2ccc(C(=O)O)cc2)cc1` [compound 18, (Z)-4,4′-(But-2-ene-1,4-diylbis(oxy))dibenzoic Acid]: the GI50 in assay [1] (read-out: 18), in assay [2] (read-out: 18), in assay [3] (read-out: 18), in assay [4] (read-out: 18), in assay [5] (read-out: 18) and in [6] (read-out: 18) was above 50 µM throughout. In addition, the GI50 in assay [7] (read-out: 18), in [8] (read-out: 18), in [9] (read-out: 18), in [10] (read-out: 18), in assay [11] (read-out: 18) and in assay [12] (read-out: 18) was above 50 µM throughout.

Consider `Nc1ccc(OC/C=C\COc2ccc(N)cc2)cc1` [8e, (Z)-4,4′-(But-2-ene-1,4-diylbis(oxy))dianiline hydrochloride], for which the GI50 in [1] (read-out: 8e), in [2] (read-out: 8e), in [3] (read-out: 8e), in assay [4] (read-out: 8e), in assay [5] (read-out: 8e) and in [6] (read-out: 8e) was above 50 µM throughout. For the same compound, the GI50 in assay [7] (read-out: 8e), in assay [8] (read-out: 8e), in assay [9] (read-out: 8e), in assay [10] (read-out: 8e), in [11] (read-out: 8e) and in assay [12] (read-out: 8e) was above 50 µM each time.

As for `CCNC(=O)Nc1ccc(OC/C=C\COc2ccc(NC(=O)NCC)cc2)cc1` [10e, (Z)-1,1′-((But-2-ene-1,4-diylbis(oxy))bis(4,1-phenylene))bis(3-ethylurea)], the GI50 in [1] (read-out: 10e), in [2] (read-out: 10e), in [3] (read-out: 10e), in assay [4] (read-out: 10e), in assay [5] (read-out: 10e) and in assay [6] (read-out: 10e) was above 50 µM throughout. The GI50 in assay [7] (read-out: 10e), in assay [8] (read-out: 10e), in assay [9] (read-out: 10e), in assay [10] (read-out: 10e), in assay [11] (read-out: 10e) and in [12] (read-out: 10e) was above 50 µM throughout.

With `CCNC(=O)Nc1ccc(OC/C=C\COc2ccc(CCN)cc2)cc1` [13i, (Z)-2-(4-((4-(4-(3-Ethylureido)phenoxy)but-2-en-1-yl)oxy)phenyl)ethan-1-aminium], the GI50 in assay [1] (read-out: 13i) is 29 ± 1.4 µM; in assay [2] (read-out: 13i) it was 17 ± 0.75 µM; in assay [3] (read-out: 13i), 15 µM; in [4] (read-out: 13i), 24 ± 2.6 µM; in assay [5] (read-out: 13i) it was 13 ± 0.41 µM; in [6] (read-out: 13i), 19 ± 0.5 µM. Moreover, the GI50 in assay [7] (read-out: 13i) worked out at 18 ± 3.2 µM; in [8] (read-out: 13i), 28 ± 4.4 µM; in assay [9] (read-out: 13i) it was 28 ± 0.82 µM; in assay [10] (read-out: 13i), 17 ± 0.82 µM; in assay [11] (read-out: 13i) it was 18 ± 0.91 µM; in assay [12] (read-out: 13i) it was 21 ± 2.1 µM.

With `CCNC(=O)Nc1ccc(OCCCCOc2ccc(NC(=O)NCC)cc2)cc1` [compound 1], the GI50 in [1] (read-out: 1), in assay [2] (read-out: 1), in assay [3] (read-out: 1), in [4] (read-out: 1), in [5] (read-out: 1) and in assay [6] (read-out: 1) was above 50 µM each time. Besides, the GI50 in assay [7] (read-out: 1), in [8] (read-out: 1), in assay [9] (read-out: 1), in assay [10] (read-out: 1), in assay [11] (read-out: 1) and in [12] (read-out: 1) was above 50 µM in each case.

Take `CCNC(=O)Nc1ccc(OCCCCCOc2ccc(NC(=O)NCC)cc2)cc1` [10b, N,N′-[1,5-Pentanediylbis(oxy-4,1-phenylene)]bis(N-ethyl)urea]: the GI50 in assay [1] (read-out: 10b), in [2] (read-out: 10b), in [3] (read-out: 10b), in [4] (read-out: 10b), in assay [5] (read-out: 10b) and in assay [6] (read-out: 10b) was above 50 µM each time. In addition, the GI50 in assay [7] (read-out: 10b), in assay [8] (read-out: 10b), in [9] (read-out: 10b), in [10] (read-out: 10b), in [11] (read-out: 10b) and in assay [12] (read-out: 10b) was above 50 µM throughout.

The record behind these values is PMC6044933 (ACS Omega, 2017).
